Measurements taken from PubChem BioAssay AID1996.
Values after ≈ are worked out from the molar mass of the structure shown.

Details: buffer; pH 7.4; 200.0 µM

Structure (SMILES) | solubility kinetic [µg/mL]
Cc1ccnc(NC(=O)CC(c2ccccc2)c2ccccc2)n1 | 35.7 (≈ 112 µM)
Cn1nccc1C(=O)N1CCN(c2ccccc2F)CC1 | > 43.2
COc1ccc(N2CCN(S(=O)(=O)c3cnc[nH]3)CC2)cc1 | 3 (≈ 9.31 µM)
O=C1CS(=O)(=O)c2ccccc2N1 | > 29.6
O=C(Nc1nccs1)c1ccc(COc2ccccc2Cl)o1 | 0.9 (≈ 2.69 µM)
CCOC(=O)C1=C(C)N(C)C(=S)N(C)C1c1ccc(OC)cc1 (stereo not given) | 19.8 (≈ 59.2 µM)
O=C(O)c1ccc(COc2ccc([N+](=O)[O-])cc2)o1 | > 39.5
N#Cc1ccc(CSc2nc(N)cc(N)n2)cc1 | 37.3 (≈ 145 µM)
COc1cccc(N2CC(O)Cn3c2nc2c3c(=O)[nH]c(=O)n2C)c1 (stereo not given) | > 51.5
Cn1c(SCC(=O)N2CCCC2=O)nc2ccccc21 | > 43.4
CC(Sc1nncn1C)C(=O)Nc1ccc2ccccc2c1 (stereo not given) | > 46.9
CCOC(=O)C1=C(COC(=O)c2ccc([N+](=O)[O-])s2)NC(=O)NC1C (stereo not given) | > 55.4
COc1ccc(CNC(=O)COC(=O)[C@@H]2CCCN2C(=O)c2cccs2)cc1 | > 60.4
CCOc1ccc(/C=N/OCC(=O)NCc2ccco2)cc1 | > 45.3
COc1ccc(S(=O)(=O)N(C)CC(=O)N2CCCC2)cc1 | > 46.9
N/C(=N\OC(=O)c1ccoc1)c1ccc(Br)cc1 | 9.2 (≈ 29.8 µM)
Cc1cnc(C(=O)Oc2cccc(Cl)c2Cl)cn1 | 35.4 (≈ 125 µM)
Cl.N=C(N)SCc1ccc(O)c([N+](=O)[O-])c1 | > 39.6
O=C(CN1C(=O)C2CCCCC2C1=O)Nc1ccccc1C(=O)O (stereo not given) | > 49.6
COc1ccc(NC(=O)Nc2ccncc2)c(OC)c1 | > 41

Structure (SMILES) | solubility kinetic [µg/mL]
Cc1ccc(S(=O)(=O)N(C)C)cc1NC(=O)c1cccs1 | 39.8 (≈ 123 µM)
CN(C)c1c(F)cc(C(=O)NC(=O)NCc2cccnc2)cc1F | 4 (≈ 12 µM)
COc1ccc(O)c(/C=C2/SC(=S)N(Cc3ccccc3)C2=O)c1 | < 0.8
Cc1cc(C)cc(NC(=O)CCN2CCOCC2)c1 | > 39.4
CC(C)(C)NCC(O)c1cc(Cl)c(N)c(Cl)c1.Cl (stereo not given) | 46.5
COc1ccc2c(C=O)cn(C)c2c1 | > 28.4
Cc1nnc(SCC(=O)Nc2nccs2)o1 | > 38.4
COCCNC(=O)c1cc2cc(Cl)cc(Cl)c2oc1=O | 9.2 (≈ 29.1 µM)
Cc1cccc(SCC(=O)Nc2ccc3c(c2)OCCO3)c1 | 36.4 (≈ 115 µM)
O=C(NC1CCCCCCC1)c1cccc(Cl)c1 | 0.9 (≈ 3.39 µM)
CN(C)c1ccc(C2N(C)C(=O)c3ccccc3N2C)cc1 (stereo not given) | 40.9 (≈ 138 µM)
Cc1csc(SCC(=O)N(C)C2CCS(=O)(=O)C2)n1 (stereo not given) | > 48.1
Cl.NC(Cc1ccccc1)C(=O)N1CCCCC1 (stereo not given) | > 40.3
CC(C)c1ccc(NC(=O)C2CSC3(C)CCC(=O)N23)cc1 (stereo not given) | 24.9 (≈ 78.2 µM)
COc1ccc(-c2csc(-c3ccccc3)n2)c(OC)c1 | 3.3 (≈ 11.1 µM)
Cc1cc(N(C)Cc2ccccc2)nc2cc(O)ccc12 | 30.5 (≈ 110 µM)
COc1cccc(OCC(=O)Nc2ccccc2-c2ccccc2)c1 | 1.5 (≈ 4.5 µM)
CC(C)CC(=O)N1CC(=O)Nc2ccc(F)cc2C1c1ccccc1 (stereo not given) | > 51.1
CCOC(=O)Cn1c(=NC(=O)C(C)C)sc2c(C)cc(C)cc21 | < 0.4
O=C(COC(=O)COc1ccccc1)Nc1ccc(Br)cc1Br | 2.2 (≈ 4.97 µM)

Structure (SMILES) | solubility kinetic [µg/mL]
Cc1cc(/C=C2/C(=O)NC(=O)N(C)C2=O)c(C)n1-c1ccccc1 | 1.1 (≈ 3.4 µM)
CCOCCCN1CC(C(=O)NCc2ccc3c(c2)OCO3)CC1=O (stereo not given) | > 52.3
O=C(N/C(=C\c1ccco1)C(=O)N1CCCC1)c1ccccc1 | 41.6 (≈ 134 µM)
O=C(Cc1cccc2ccccc12)Nc1ccc(O)cc1C(=O)O | > 48.2
CCN(CCCl)Cc1ccccc1Br.Cl | 42.1
Cn1cnc2cc(NCc3ccc(Cl)cc3)ccc21 | > 40.8
N#Cc1ccc(/C=C\c2nccc3c2[nH]c2ccccc23)cc1 | 1.3 (≈ 4.4 µM)
CCOc1ccc(C(=O)NNC(=O)CN2C(=O)C3CC=CCC3C2=O)cc1OC (stereo not given) | > 60.2
Cc1ccc(CNC(=O)CCNC(=O)c2ccc([N+](=O)[O-])cc2)cc1 | 41.2 (≈ 121 µM)
CCC(C)[C@H](NC(=O)Nc1ccc(C)cc1C)C(=O)O (stereo not given in full) | 31.8 (≈ 114 µM)
CCN(CC)CCCN=C(C)C1=C(O)c2ccccc2C1=O | > 45.1
COc1ccc(CC(=O)NC2CC2)cc1OC | > 35.3
CNc1oc(/C=C/c2cccc(OC)c2)nc1C#N | 3.7 (≈ 14.5 µM)
CN(C)S(=O)(=O)c1cccc(C(=O)NC2CCSc3ccccc32)c1 (stereo not given) | 4.8 (≈ 12.7 µM)
O=C(CCCN1C(=O)/C(=C/c2ccccc2OC(F)F)SC1=S)Nc1cccnc1 | 4.5 (≈ 10 µM)
COc1ccc(CSc2nc(C)[nH]c2[N+](=O)[O-])cc1[N+](=O)[O-] | 3.2 (≈ 9.87 µM)
CCC1(c2ccc(F)cc2)NC(=O)N(CC(=O)N2CCN(C(=O)c3ccco3)CC2)C1=O (stereo not given) | > 66.4
CCN(CC)c1ccc(/C=C2\SC(N)=NC2=O)cc1 | < 0.2
CC1(C)C(=O)Nc2ccccc2N1C(=O)COC(=O)c1ccc([N+](=O)[O-])o1 | 12.1 (≈ 32.4 µM)
Cc1ccc(Nc2nc(-c3ccccc3)c(CC(=O)O)s2)cc1 | > 48.7
